Test results from patent US20240116985A1, “STAPLED PEPTIDES AND METHODS THEREOF” (priority 2020, published 2024).
Where two headings read alike, the source gives them in different places.

Key:
[1] = target: T1, full-length beta-Catenin (Uniprot ID P35222) (Homo sapiens, UniProt P35222); assay: Fluorescence polarization IC50 (beta-catenin / 5FAM-TCF4 10-53 competition); format: binding
T1 construct: 10 nM full-length beta-Catenin (Uniprot ID P35222)
T1 sequence (P35222 1-781): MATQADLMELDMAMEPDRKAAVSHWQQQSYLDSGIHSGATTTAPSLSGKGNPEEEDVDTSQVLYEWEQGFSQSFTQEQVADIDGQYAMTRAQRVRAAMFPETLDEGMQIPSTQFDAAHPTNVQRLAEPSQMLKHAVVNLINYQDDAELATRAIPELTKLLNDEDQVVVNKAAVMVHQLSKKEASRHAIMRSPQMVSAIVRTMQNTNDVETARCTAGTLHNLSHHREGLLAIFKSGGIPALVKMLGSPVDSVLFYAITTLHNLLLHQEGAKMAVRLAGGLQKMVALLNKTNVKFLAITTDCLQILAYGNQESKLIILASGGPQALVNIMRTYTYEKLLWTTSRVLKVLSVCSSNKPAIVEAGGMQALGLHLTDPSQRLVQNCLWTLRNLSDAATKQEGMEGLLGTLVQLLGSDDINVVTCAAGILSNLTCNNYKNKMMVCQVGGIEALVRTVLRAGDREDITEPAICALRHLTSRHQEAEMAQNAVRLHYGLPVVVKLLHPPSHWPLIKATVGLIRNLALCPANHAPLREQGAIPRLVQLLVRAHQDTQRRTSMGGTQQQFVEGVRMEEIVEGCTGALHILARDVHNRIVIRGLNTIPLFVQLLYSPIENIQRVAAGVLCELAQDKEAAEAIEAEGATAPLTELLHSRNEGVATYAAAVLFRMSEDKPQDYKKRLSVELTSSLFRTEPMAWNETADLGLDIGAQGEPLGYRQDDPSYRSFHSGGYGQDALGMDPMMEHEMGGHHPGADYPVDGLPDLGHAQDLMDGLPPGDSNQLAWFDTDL

[2] = CHI Log D procedure; format: physicochemical; details: for CHI Log D: pH 7.4; for chromatographic logD: pH 7.4, CHI Log D
[3] = fluorescence polarization, read-out: beta-Catenin FP IC50

Structure (SMILES)	IC50 [1, 3] [µM]	IC50 ([1]; read-out: FP EC50) [µM]	CHI Log D [2]	chromatographic logD [2]
CC(=O)N1CCC[C@]12CC=CCCCC1(CCCC=CCCCCCC[C@@](C)(C(=O)N[C@@H](Cc3cccc(F)c3)C(=O)N[C@@H](Cc3csc4ccccc34)C(=O)N[C@@H](Cc3c[nH]cn3)C(N)=O)NC(=O)[C@H](CCC(N)=O)NC(=O)[C@H](Cc3ccsc3)NC(=O)[C@H](C)NC(=O)[C@H](C)NC(=O)[C@H](CCC(=O)O)NC(=O)[C@H](CC(=O)O)NC1=O)NC(=O)[C@H](C)NC(=O)[C@H](CC(=O)O)NC2=O (stereo partly drawn) [I-430, Ac-PL3-Asp-Ala-B5-Asp-Glu-Ala-Ala-3Thi-Gln-S8-3FF-BztA-His-NH2]	0.154			2.13
CC(=O)N1CCC[C@]12CC=CCCCC1(CCCC=CCCCCCC[C@@](C)(C(=O)N[C@@H](Cc3ccccc3)C(=O)N[C@@H](Cc3csc4ccccc34)C(=O)N[C@@H](CCC(N)=O)C(N)=O)NC(=O)[C@H](CC(N)=O)NC(=O)[C@H](Cc3ccccc3F)NC(=O)[C@H](C)NC(=O)[C@H](C)NC(=O)[C@H](CCC(=O)O)NC(=O)[C@H](CC(=O)O)NC1=O)NC(=O)[C@H](C)NC(=O)[C@H](CC(=O)O)NC2=O (stereo partly drawn) [I-453, Ac-PL3-Asp-Ala-B5-Asp-Glu-Ala-Ala-2FF-Asn-S8-Phe-BztA-Gln-NH2]	1.55			2.01
CC(=O)N1CCC[C@]12CC=CCCCC1(CCCC=CCCCCCC[C@@](C)(C(=O)N[C@@H](Cc3ccccc3)C(=O)N[C@@H](Cc3csc4ccccc34)C(=O)N[C@@H](CCC(N)=O)C(N)=O)NC(=O)[C@H](CC(N)=O)NC(=O)[C@H](Cc3cccc(F)c3)NC(=O)[C@H](C)NC(=O)[C@H](C)NC(=O)[C@H](CCC(=O)O)NC(=O)[C@H](CC(=O)O)NC1=O)NC(=O)[C@H](C)NC(=O)[C@H](CC(=O)O)NC2=O (stereo partly drawn) [I-454, Ac-PL3-Asp-Ala-B5-Asp-Glu-Ala-Ala-3FF-Asn-S8-Phe-BztA-Gln-NH2]	0.125			2.05
CC(=O)N1CCC[C@]12CC=CCCCC1(CCCC=CCCCCCC[C@@](C)(C(=O)N[C@@H](Cc3ccccc3)C(=O)N[C@@H](Cc3csc4ccccc34)C(=O)N[C@@H](CCC(N)=O)C(N)=O)NC(=O)[C@H](CC(N)=O)NC(=O)[C@H](Cc3ccccc3C)NC(=O)[C@H](C)NC(=O)[C@H](C)NC(=O)[C@H](CCC(=O)O)NC(=O)[C@H](CC(=O)O)NC1=O)NC(=O)[C@H](C)NC(=O)[C@H](CC(=O)O)NC2=O (stereo partly drawn) [I-456, Ac-PL3-Asp-Ala-B5-Asp-Glu-Ala-Ala-2MeF-Asn-S8-Phe-BztA-Gln-NH2]	2.17	2.17	2.0045	
CC(=O)N1CCC[C@]12CC=CCCCC1(CCCC=CCCCCCC[C@@](C)(C(=O)N[C@@H](Cc3ccccc3)C(=O)N[C@@H](Cc3csc4ccccc34)C(=O)N[C@@H](CCC(N)=O)C(N)=O)NC(=O)[C@H](CC(N)=O)NC(=O)[C@H](Cc3ccccc3C)NC(=O)[C@H](C)NC(=O)[C@H](C)NC(=O)[C@H](CCC(=O)O)NC(=O)[C@H](CC(=O)O)NC1=O)NC(=O)[C@H](C)NC(=O)[C@H](CC(=O)O)NC2=O (stereo partly drawn) [I-457, Ac-PL3-Asp-Ala-B5-Asp-Glu-Ala-Ala-2MeF-Asn-S8-Phe-BztA-Gln-NH2]	1.44	1.44	2.0242	
CC(=O)N1CCC[C@]12CC=CCCCC1(CCCC=CCCCCCC[C@@](C)(C(=O)N[C@@H](Cc3ccccc3)C(=O)N[C@@H](Cc3csc4ccccc34)C(=O)N[C@@H](CCC(N)=O)C(N)=O)NC(=O)[C@H](CC(N)=O)NC(=O)[C@H](Cc3cccc(C)c3)NC(=O)[C@H](C)NC(=O)[C@H](C)NC(=O)[C@H](CCC(=O)O)NC(=O)[C@H](CC(=O)O)NC1=O)NC(=O)[C@H](C)NC(=O)[C@H](CC(=O)O)NC2=O (stereo partly drawn) [I-458, Ac-PL3-Asp-Ala-B5-Asp-Glu-Ala-Ala-3MeF-Asn-S8-Phe-BztA-Gln-NH2]	0.102			2.07
CC(=O)N1CCC[C@]12CC=CCCCC1(CCCC=CCCCCCC[C@@](C)(C(=O)N[C@@H](Cc3ccccc3)C(=O)N[C@@H](Cc3csc4ccccc34)C(=O)N[C@@H](CCC(N)=O)C(N)=O)NC(=O)[C@H](CC(N)=O)NC(=O)[C@H](Cc3ccc(C)cc3)NC(=O)[C@H](C)NC(=O)[C@H](C)NC(=O)[C@H](CCC(=O)O)NC(=O)[C@H](CC(=O)O)NC1=O)NC(=O)[C@H](C)NC(=O)[C@H](CC(=O)O)NC2=O (stereo partly drawn) [I-459, Ac-PL3-Asp-Ala-B5-Asp-Glu-Ala-Ala-4MeF-Asn-S8-Phe-BztA-Gln-NH2]	0.183			2.06
CC(=O)N1CCC[C@]12CC=CCCCC1(CCCC=CCCCCCC[C@@](C)(C(=O)N[C@@H](Cc3ccccc3)C(=O)N[C@@H](Cc3csc4ccccc34)C(=O)N[C@@H](CCC(N)=O)C(N)=O)NC(=O)[C@H](CC(N)=O)NC(=O)[C@H](Cc3ccco3)NC(=O)[C@H](C)NC(=O)[C@H](C)NC(=O)[C@H](CCC(=O)O)NC(=O)[C@H](CC(=O)O)NC1=O)NC(=O)[C@H](C)NC(=O)[C@H](CC(=O)O)NC2=O (stereo partly drawn) [I-460, Ac-PL3-Asp-Ala-B5-Asp-Glu-Ala-Ala-2FurA-Asn-S8-Phe-BztA-Gln-NH2]	0.195			1.99
CC(=O)N1CCC[C@]12CC=CCCCC1(CCCC=CCCCCCC[C@@](C)(C(=O)N[C@@H](Cc3ccccc3)C(=O)N[C@@H](Cc3csc4ccccc34)C(=O)N[C@@H](CCC(N)=O)C(N)=O)NC(=O)[C@H](CC(N)=O)NC(=O)[C@H](Cc3ccc(N)cc3)NC(=O)[C@H](C)NC(=O)[C@H](C)NC(=O)[C@H](CCC(=O)O)NC(=O)[C@H](CC(=O)O)NC1=O)NC(=O)[C@H](C)NC(=O)[C@H](CC(=O)O)NC2=O (stereo partly drawn) [I-461, Ac-PL3-Asp-Ala-B5-Asp-Glu-Ala-Ala-4AmPhe-Asn-S8-Phe-BztA-Gln-NH2]	0.125			1.94
CC(=O)N1CCC[C@]12CC=CCCCC1(CCCC=CCCCCOC(=O)N3CC[C@@](C(=O)N[C@@H](Cc4ccccc4)C(=O)N[C@@H](Cc4csc5ccccc45)C(=O)N[C@@H](CCC(N)=O)C(N)=O)(C3)NC(=O)[C@H](CC(N)=O)NC(=O)[C@H](Cc3ccccc3)NC(=O)[C@H](C)NC(=O)[C@H](C)NC(=O)[C@H](CCC(=O)O)NC(=O)[C@H](CC(=O)O)NC1=O)NC(=O)[C@H](C)NC(=O)[C@H](CC(=O)O)NC2=O (stereo partly drawn) [I-463, Ac-PL3-Asp-Ala-B5-Asp-Glu-Ala-Ala-Phe-Asn-PyrS3-Phe-BztA-Gln-NH2]	0.092	0.092	1.785	

The next compounds have a lower IC50 [1, 3] than those just listed; values first:

IC50 [1, 3] [µM]	IC50 ([1]; read-out: FP EC50) [µM]	CHI Log D [2]	chromatographic logD [2]	Structure (SMILES)
0.0835			2.04	CC(=O)N1CCC[C@]12CC=CCCCC1(CCCC=CCCCCCC[C@@](C)(C(=O)N[C@@H](Cc3ccccc3)C(=O)N[C@@H](Cc3csc4ccccc34)C(=O)N[C@@H](CCC(N)=O)C(N)=O)NC(=O)[C@H](CC(N)=O)NC(=O)[C@H](Cc3ccc(F)cc3)NC(=O)[C@H](C)NC(=O)[C@H](C)NC(=O)[C@H](CCC(=O)O)NC(=O)[C@H](CC(=O)O)NC1=O)NC(=O)[C@H](C)NC(=O)[C@H](CC(=O)O)NC2=O (stereo partly drawn) [I-455, Ac-PL3-Asp-Ala-B5-Asp-Glu-Ala-Ala-4FF-Asn-S8-Phe-BztA-Gln-NH2]
0.057	0.057	1.831		CC(=O)N1CCC[C@]12CC=CCCCC1(CCCC=CCCCCOC(=O)N3CC[C@@](C(=O)N[C@@H](Cc4ccccc4)C(=O)N[C@@H](Cc4csc5ccccc45)C(=O)N[C@@H](CCC(N)=O)C(N)=O)(C3)NC(=O)[C@H](CC(N)=O)NC(=O)[C@H](Cc3ccccc3)NC(=O)[C@H](C)NC(=O)[C@H](C)NC(=O)[C@H](CCC(=O)O)NC(=O)[C@H](CC(=O)O)NC1=O)NC(=O)[C@H](C)NC(=O)[C@H](CC(=O)O)NC2=O (stereo partly drawn) [I-464, Ac-PL3-Asp-Ala-B5-Asp-Glu-Ala-Ala-Phe-Asn-PyrS3-Phe-BztA-Gln-NH2]
0.027	0.027	2.354		CC[C@H](C)[C@@H]1NC(=O)[C@H](CC(=O)O)NC(=O)[C@]2(CC=CCCCC3(CCCC=CCCCCCC[C@@](C)(C(=O)N[C@@H](Cc4ccccc4)C(=O)N[C@@H](Cc4csc5ccccc45)C(=O)N[C@@H](Cc4c[nH]cn4)C(N)=O)NC(=O)[C@H](CC(N)=O)NC(=O)[C@H](Cc4ccccc4)NC(=O)[C@H](C)NC(=O)[C@H](C)NC(=O)[C@H](CC(=O)O)NC(=O)[C@H](CC(=O)O)NC3=O)NC1=O)CCCN2C(C)=O (stereo partly drawn) [I-469, Ac-PL3-Asp-Ile-B5-Asp-Asp-Ala-Ala-Phe-Asn-S8-Phe-BztA-His-NH2]
0.023	0.023	2.114		CC(=O)N1CCC[C@]12CC=CCCCC1(CCCC=CCCCCCC[C@@](C)(C(=O)N[C@@H](Cc3ccccc3)C(=O)N[C@@H](Cc3csc4ccccc34)C(=O)N[C@@H](Cc3c[nH]cn3)C(N)=O)NC(=O)[C@H](CCC(N)=O)NC(=O)[C@H](Cc3ccccc3)NC(=O)[C@H](C)NC(=O)[C@H](C)NC(=O)[C@H](CCC(=O)O)NC(=O)[C@H](CC(=O)O)NC1=O)NC(=O)[C@H](C)NC(=O)[C@H](CC(=O)O)NC2=O (stereo partly drawn) [I-419, Ac-PL3-Asp-Ala-B5-Asp-Glu-Ala-Ala-Phe-Gln-S8-Phe-BztA-His-NH2]
